{
  "source": "patent US7129392B2",
  "about": "“Materials and methods for increasing isoprenoid production in cells” (priority 2000, dated 2006)",
  "key": {"[1]": {"test_system": "Nicotiana tabacum var. ‘Xanthi NC’ leaf sections", "assay": "Toxicity of fosmidomycin to tobacco grown on medium", "settings": "after three weeks of growth on medium"}, "DXP reductoisomerase": {"target": "DXP reductoisomerase (Escherichia coli, UniProt P45568)", "sequence (P45568 whole entry)": "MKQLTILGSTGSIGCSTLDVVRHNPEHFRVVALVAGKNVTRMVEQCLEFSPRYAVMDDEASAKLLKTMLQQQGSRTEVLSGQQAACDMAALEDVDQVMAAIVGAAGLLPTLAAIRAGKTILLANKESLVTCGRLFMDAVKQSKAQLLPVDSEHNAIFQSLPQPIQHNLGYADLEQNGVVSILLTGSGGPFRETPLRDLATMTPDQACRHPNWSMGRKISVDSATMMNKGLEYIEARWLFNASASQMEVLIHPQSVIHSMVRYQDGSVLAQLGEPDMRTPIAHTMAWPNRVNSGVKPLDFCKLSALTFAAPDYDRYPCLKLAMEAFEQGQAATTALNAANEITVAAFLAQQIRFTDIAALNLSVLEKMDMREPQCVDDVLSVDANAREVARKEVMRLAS", "settings": "Kuzuyama et al., 1998; cited from earlier work"}, "E. coli TOP10 F′": {"test_system": "E. coli TOP10 F′", "assay": "Growth of E. coli control cells on medium containing fosmidomycin", "type": "cell-based", "settings": "TOP10 F′ transformed with parent vectors; LB or LB/IPTG with fosmidomycin 20 μg/ml", "procedure": "Single colonies of TOP10 F′/pHKO2 (designated strain HK6), TOP10 F′/pHKO3 (designated strain HK7), and TOP10 F′/pHKO9 (designated strain HK8), are used to individually inoculate 4 ml LB/amp cultures and grown overnight at 30° C., 225 rpm. The HK6 and HK7 cultures are serially diluted 10,000 to 100,000-fold and plated on LB containing fosmidomycin (20 μg/ml)."}, "[2]": {"settings": "especially in combination with other herbicides; Kamuro et al.; cited from earlier work"}},
  "data": [
    {"smiles": "O=CN(O)CCCP(=O)(O)O", "note": "[fosmidomycin]", "values": [
      {"measurement": "fosmidomycin concentration at which toxicity is evident in tobacco", "setting": "[1]", "result": "at least 500 micromolar"},
      {"measurement": "inhibition of the enzyme DXP reductoisomerase", "setting": "DXP reductoisomerase", "result": "specific inhibitor"},
      {"measurement": "growth of E. coli control cells on medium containing fosmidomycin", "setting": "E. coli TOP10 F′", "result": "unable to grow"},
      {"measurement": "herbicidal activity", "setting": "[2]", "result": "significant herbicidal activity"}
    ]}
  ]
}
